Experiments:
Type in all cases: cell-based
[1] = target: T1, human recombinant prostanoid EP1 receptor (Homo sapiens, UniProt P34995); experiment: FLIPR Ca2+ signaling, PG antagonist activity, EP1; conditions: antagonism of standard agonist PGE2, HEK-293 EBNA stable cells
T1 construct: expressed in transfected cells
T1 sequence (P34995 1-402): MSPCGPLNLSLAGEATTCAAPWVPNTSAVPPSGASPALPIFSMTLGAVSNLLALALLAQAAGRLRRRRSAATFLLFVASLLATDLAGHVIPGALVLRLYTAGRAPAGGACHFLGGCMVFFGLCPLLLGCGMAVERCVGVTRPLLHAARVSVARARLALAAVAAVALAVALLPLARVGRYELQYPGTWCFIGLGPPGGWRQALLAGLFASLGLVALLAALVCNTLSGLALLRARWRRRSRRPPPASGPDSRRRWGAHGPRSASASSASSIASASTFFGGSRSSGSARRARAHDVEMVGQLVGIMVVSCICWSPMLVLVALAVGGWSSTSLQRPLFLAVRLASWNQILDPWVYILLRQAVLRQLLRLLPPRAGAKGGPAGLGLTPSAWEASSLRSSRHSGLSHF
Procedure: (§1) The above compounds were tested for PG antagonist activity as follows using human recombinant prostanoid receptor (DP1, EP1-4, FP, IP and TP) stable cell lines:
(§2) In order to measure the response of Gs and Gi coupled prostanoid receptors as a Ca^2+ signal, chimeric G protein cDNAs were used. Stable cell lines over-expressing human prostanoid DP1, EP1-4, FP, IP, and TP receptors were established as follows:
(§3) Briefly, human prostanoid DP1, EP2, and EP4 receptor cDNAs were co-transfected with chimeric Gqs cDNA containing a haemagglutanin (HA) epitope; human prostanoid EP3 receptors were co-transfected with chimeric Gqi-HA; human EP1, FP, IP, and TP receptor cDNAs were expressed with no exogenous G-proteins. Gqs and Gqi chimeric cDNAs (Molecular Devices, Sunnyvale, Calif., U.S.A.), as well as cDNAs of prostanoid receptors, were cloned into a pCEP4 vector with a hygromycin B selection marker. Transfection into HEK-293 EBNA (Epstein-Barr virus nuclear antigen) cells was achieved by the FuGENE 6 transfection Reagent (Roche Applied Science, Indianapolis, Ind., USA). Stable transfectants were selected according to hygromycin resistance. Because Gqs and Gqi contained an HA epitope, G-protein expression was detected by Western blotting analysis using anti-mouse HA monoclonal antibody and horseradish peroxidase (HRP)-conjugated secondary antibody, while functional expression of prostanoid receptors was detected by FLIPR screening (Matias et al., 2004). These stable cell lines were validated using previously published antagonists at 10 μM against serial dilutions of standard agonists by FLIPR functional assays for Ca^2− Signaling (as described below).
(§4) Ca^2+ signaling studies were performed using a FLIPR TETRA system (Molecular Devices, Sunnyvale, Calif., USA) in the 384-format. This is a high-throughput instrument for cell-based assays to monitor Ca^2+ signaling associated with GPCRs and ion channels. Cells were seeded at a density of 5×10^4 cells/well in BioCoat poly-D-lysine coated, black wall, clear bottom 384-well plates (BD Biosciences, Franklin lakes, N.J., USA) and allowed to attach overnight in an incubator at 37° C. The cells were then washed twice with HBSS-HEPES buffer (Hanks' balanced salt solution without bicarbonate and phenol red, 20 mM HEPES, pH 7.4) using an ELx405 Select CW Microplate Washer (BioTek, Winooski, Vt., USA). After 60 min of dye-loading in the dark using the Ca^2+-sensitive dye Fluo-4AM (Invitrogen, Carlsbad, Calif., USA), at a final concentration of 2×10^−6M, the plates were washed 4 times with HBSS-HEPES buffer to remove excess dye and leaving 50 μl of buffer in each well. The plates were then placed in the FLIPR TETRA instrument and allowed to equilibrate at 37° C. AGN-211377 was added in a 25 μl volume to each well to give final concentrations of 0.1 μM, 0.3 μM, 1 μM, 3 μM, 10 μM, and 30 μM; or 0.067 μM, 0.1 μM, 0.2 μM, 0.3 μM, 0.67 μM, and 1 μM for cells over-expressing TP receptors. After 4.5 minutes, a 7-point serial dilution of the standard agonist for the corresponding receptor, in a 25 μl volume was injected at the final concentrations from 10^−11M to 10^−5M in 10-fold serial dilution increments for cells expressing human recombinant DP1, EP1, EP2, EP3, EP4, FP, and IP receptors. The dose range for the standard agonist for human recombinant TP receptors was from 10^−12M to 10^−6M. HBSS-HEPES buffer was used as the negative control for the standard agonists. Cells were excited with LED (light emitting diode) excitation at 470-495 nm and emission was measured through an emission filter at 515-575 nm. Assay plates were read for 3.5 minutes using the FLIPR^TETRA. The peak increase in fluorescence intensity was recorded for each well. On each plate, negative controls, dose response of positive controls, and co-treatments of antagonist-agonist for each dose were in triplicates. Standard agonists were as follows: DP=BW 245C, EP1-EP4=PGE2, FP=17-phenyl-PGF2α, IP=Cicaprost, and TP=U-46619. […]

[2] = target: T2, human recombinant prostanoid EP4 receptor (Homo sapiens, UniProt P35408); experiment: FLIPR Ca2+ signaling, PG antagonist activity, EP4; conditions: antagonism of standard agonist PGE2, HEK-293 EBNA stable cells with chimeric Gqs
T2 construct: expressed in transfected cells; co-transfected with chimeric Gqs-HA
T2 sequence (P35408 whole entry): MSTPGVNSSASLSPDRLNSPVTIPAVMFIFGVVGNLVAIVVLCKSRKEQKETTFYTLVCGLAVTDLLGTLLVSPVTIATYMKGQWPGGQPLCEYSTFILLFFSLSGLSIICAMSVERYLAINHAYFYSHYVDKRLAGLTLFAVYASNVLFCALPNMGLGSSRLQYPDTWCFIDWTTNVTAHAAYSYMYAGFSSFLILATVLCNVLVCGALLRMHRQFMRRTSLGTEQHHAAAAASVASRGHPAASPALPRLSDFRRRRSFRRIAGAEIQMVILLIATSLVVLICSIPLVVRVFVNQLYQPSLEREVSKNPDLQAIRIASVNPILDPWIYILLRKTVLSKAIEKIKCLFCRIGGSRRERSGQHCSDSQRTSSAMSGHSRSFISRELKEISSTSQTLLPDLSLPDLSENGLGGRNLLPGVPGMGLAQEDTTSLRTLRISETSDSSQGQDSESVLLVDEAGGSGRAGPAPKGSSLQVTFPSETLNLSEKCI
Procedure: as §1, §2, §3, §4

[3] = target: T3, human recombinant prostanoid DP1 receptor (Homo sapiens, UniProt Q13258); experiment: FLIPR Ca2+ signaling, PG antagonist activity, DP; conditions: antagonism of standard agonist BW 245C, HEK-293 EBNA stable cells with chimeric Gqs
T3 construct: expressed in transfected cells; co-transfected with chimeric Gqs-HA
T3 sequence (Q13258 1-359): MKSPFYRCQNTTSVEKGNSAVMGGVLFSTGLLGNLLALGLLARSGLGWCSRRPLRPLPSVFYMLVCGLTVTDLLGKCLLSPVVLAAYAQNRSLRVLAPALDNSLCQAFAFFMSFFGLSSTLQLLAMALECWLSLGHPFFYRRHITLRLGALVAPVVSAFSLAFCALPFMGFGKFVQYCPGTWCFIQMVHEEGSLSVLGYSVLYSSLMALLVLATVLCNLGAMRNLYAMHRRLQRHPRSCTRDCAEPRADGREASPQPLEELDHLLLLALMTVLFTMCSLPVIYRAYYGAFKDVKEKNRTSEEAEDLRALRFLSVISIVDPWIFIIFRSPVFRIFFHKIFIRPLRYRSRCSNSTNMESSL
Procedure: as §1, §2, §3, §4

[4] = target: T4, human recombinant prostanoid FP receptor (Homo sapiens, UniProt P43088); experiment: FLIPR Ca2+ signaling, PG antagonist activity, FP; conditions: antagonism of standard agonist 17-phenyl-PGF2α, HEK-293 EBNA stable cells
T4 construct: expressed in transfected cells
T4 sequence (P43088 whole entry): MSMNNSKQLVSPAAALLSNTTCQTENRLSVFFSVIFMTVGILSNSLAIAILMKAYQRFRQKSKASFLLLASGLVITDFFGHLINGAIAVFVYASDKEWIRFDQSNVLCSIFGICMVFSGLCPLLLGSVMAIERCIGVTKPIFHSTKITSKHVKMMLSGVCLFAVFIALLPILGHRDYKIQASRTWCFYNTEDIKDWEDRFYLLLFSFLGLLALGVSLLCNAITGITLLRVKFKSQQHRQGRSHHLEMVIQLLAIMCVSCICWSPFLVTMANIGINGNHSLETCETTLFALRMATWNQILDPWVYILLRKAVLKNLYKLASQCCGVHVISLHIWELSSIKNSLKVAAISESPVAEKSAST
Procedure: as §1, §2, §3, §4

SMILES	Kb [1]	Kb [2]	Kb [3]	Kb [4]
CCC(CC)COc1ccc(Br)cc1Cn1cc(C(=O)O)c(C)n1 [Example 3]	30 nM	1300 nM	1100 nM	400 nM
CCC(CC)COc1ccc(Cl)cc1Cn1ncc(C(=O)O)c1C [Example 10, 1-[5-chloro-2-(2-ethyl-butoxy)-benzyl]-5-methyl-1H-pyrazole-4-carboxylic acid]	50 nM	500 nM	940 nM	190 nM
CCC(CC)COc1ccc(Br)cc1Cn1ncc(C(=O)O)c1C [Example 2, 1-[5-bromo-2-(2-ethyl-butoxy)-benzyl]-5-methyl-1H-pyrazole-4-carboxylic acid]	33 nM	380 nM	600 nM	80 nM
CCC(CC)COc1ccc(C(F)(F)F)cc1Cn1ncc(C(=O)O)c1C [Example 8, 1-[2-(2-ethyl-butoxy)-5-trifluoromethyl-benzyl]-5-methyl-1H-pyrazole-4-carboxylic acid]	40 nM	1600 nM	1400 nM	200 nM
CCC(CC)COc1ccc(Cl)cc1Cn1nc(C)c(C(=O)O)c1C [Example 5, 1-[5-chloro-2-(2-ethyl-butoxy)-benzyl]-3,5-dimethyl-1H-pyrazole-4-carboxylic acid]	20 nM	860 nM	350 nM	700 nM
Cc1c(C(=O)O)cnn1Cc1cc(Cl)ccc1OCC1CCCC1 [Example 12, 1-(5-chloro-2-cyclopentylmethoxy-benzyl)-5-methyl-1H-pyrazole-4-carboxylic acid]	30 nM	600 nM	2500 nM	110 nM
CCC(CC)COc1ccc(Cl)cc1Cn1cc(C(=O)O)cn1 [Example 4, 1-[5-chloro-2-(2-ethyl-butoxy)-benzyl]-1H-pyrazole-4-carboxylic acid]	140 nM	4800 nM	1400 nM	2000 nM
CCC(CC)COc1ccc(Br)cc1Cn1ncc(C(=O)O)c1N [Example 16, 5-amino-1-[5-bromo-2-(2-ethyl-butoxy)-benzyl]-1H-pyrazole-4-carboxylic acid]	60 nM	300 nM	1600 nM	200 nM
Cc1c(C(=O)O)cnn1Cc1cc(Br)ccc1OCC(C)(C)C [Example 14, 1-[5-bromo-2-(2,2-dimethyl-propoxy)-benzyl]-5-methyl-1H-pyrazole-4-carboxylic acid]	30 nM	1300 nM	3400 nM	90 nM
CCC(CC)COc1ccc(C(F)(F)F)cc1Cn1cc(C(=O)O)c(C)n1 [Example 9, 1-[2-(2-ethyl-butoxy)-5-trifluoromethyl-benzyl]-3-methyl-1H-pyrazole-4-carboxylic acid]	440 nM	≥ 10000 nM	3900 nM	7200 nM
CCCc1nn(Cc2cc(Cl)ccc2OCC(CC)CC)cc1C(=O)O [Example 6, 1-[5-chloro-2-(2-ethyl-butoxy)-benzyl]-3-propyl-1H-pyrazole-4-carboxylic acid]	1500 nM	4900 nM	5600 nM	≥ 10000 nM
Cc1c(C(=O)O)cnn1Cc1cc(Cl)ccc1OCC(C)C [Example 11, 1-(5-chloro-2-isobutoxy-benzyl)-5-methyl-1-pyrazole-4-carboxylic acid]	30 nM	3300 nM	4550 nM	500 nM
CCC(CC)COc1ccc(Br)cc1Cn1ncc(CC(=O)O)c1C [Example 1, {1-[5-bromo-2-(2-ethyl-butoxy)-benzyl]-5-methyl-1H-pyrazol-4-yl}-acetic acid]	170 nM	100 nM	400 nM	2700 nM
CCC(CC)COc1ccc(OC(F)(F)F)cc1Cn1ncc(C(=O)O)c1C [Example 15, 1-[2-(2-ethyl-butoxy)-5-trifluoromethoxy-benzyl]-5-methyl-1H-pyrazole-4-carboxylic acid]	45 nM	1500 nM	780 nM	140 nM
CCCc1c(C(=O)O)cnn1Cc1cc(Cl)ccc1OCC(CC)CC [Example 7, 1-[5-chloro-2-(2-ethyl-butoxy)-benzyl]-5-propyl-1H-pyrazole-4-carboxylic acid]	640 nM	3300 nM	≥ 10000 nM	≥ 10000 nM
Cc1c(C(=O)O)cnn1Cc1cc(Br)ccc1OCC(C)C [Example 13, 1-(5-bromo-2-isobutoxy-benzyl)-5-methyl-1H-pyrazole-4-carboxylic acid]	30 nM	2100 nM	3500 nM	70 nM

Source: patent US9035071B2, “Compounds acting at multiple prostaglandin receptors giving a general anti-inflammatory response” (Allergan, Inc., priority 2011, dated 2015)
